# In patent US7943606B2, “Compositions and methods to control abnormal cell growth” (CanCure Laboratories, LLC, priority 2005, dated 2011):
# pIC50: −log10 of the molar value. Like-named read-outs stand apart in the source and are kept apart here.
# How the values were obtained:
# [1] = tested on: T47D cells; assay: Viability of T47D breast cancer cells; type: cell-based, human; settings: Homo sapiens, T47D, 72 hours, MTT
# Method: (§1) To quantify cell death, around the time when significant and characteristic morphological changes took place, cells were pulse-labeled for 10 minutes with [^3H]thymidine to measure DNA activity as described elsewhere [Tomono, M. and Kiss, Z. (1995), “Ethanol enhances the stimulatory effects of insulin and insulin-like growth factor-I on DNA synthesis in NIH 3T3 fibroblasts,” Biochem. Biophys. Res. Commun. 208, 63-67]. Also, cells were collected as suspensions using trypsin, an established method in cell biology, followed by re-plating of cells in fresh tissue culture medium. If no viable cells were obtained after one week in culture, it meant that the cells at the time of re-plating were dead. Survival values obtained with untreated cells were considered 100%. For the determination of relative number of viable cells after treatments, in most cases the MTT assay was used. This calorimetric assay is based on the ability of living cells, but not dead cells, to reduce 3-(4,5-dimethyl thiazol-2-yl)-2,5-diphenyltetrazolium bromide [Carmichael, J, De Graff, W. G., Gazdar, A. F., Minna, J. D. and Mitchell, J. B. (1987), “Evaluation of tetrazolium-based semi-automated calorimetric assay: Assessment of chemosensitivity testing,” Cancer Res. 47, 936-942]. For this assay, cells were plated in 96-well plates, and the MTT assay was performed both in untreated and treated cell cultures. The MTT assay also was performed at the start of treatments to allow assessment of proliferation rates in the control and treated cell cultures.
# About 40% confluent cultures of T47D cells, cultured in 12-well plates in RPMI 1640 medium supplemented with 0.2 IU bovine insulin and 10% FBS, were either untreated (FIG. 4A), or were treated with 100 μM CCDTHT (CCompound3) for 72 hours (FIG. 4B).
# (§2) NIH3T3, T47D, A-431, HT-29, and MEL-28 cells were cultured as indicated earlier. CaOV-3 human ovarian cancer cells were cultured in DMEM containing 10% FBS. ZR-75-1 human estrogen receptor-positive breast cancer cells were maintained in RPMI 1640 medium supplemented with 10% FBS. HTB-157 human fetal fibroblasts, MEL-24 human malignant melanoma cells, Hep G2 human hepatoblastoma cells, and CaCO-2 human colon adenocarcinoma cells were maintained in Eagles's MEM containing 10% FBS. MB-231 human estrogen receptor-negative breast cancer cells were maintained in Leibovitz's L-15 medium supplemented with 10% FBS. Cells were seeded into 96-well plates and treated at ˜70-90% confluency. Two hours prior to treatments the medium was changed for fresh 10% serum medium, and then the cells were incubated for 10 days in the absence (□) or presence of 50 μM CCDTHT ? or 100 μM CCDTHT (▪). The medium was changed and the cells were re-treated on days 3 and 6. The MTT assay was used to determine cell viability on day 10. The data, shown in FIG. 6, are the mean±std. dev. of 8 incubations in one experiment.
# (§3) The MRC-5 cell line is derived from normal lung tissue of a […] fetus. MRC-5 cells were maintained and treated in Eagles Medium with Hanks' BSS containing 10% fetal bovine serum. The T47D cells were maintained and treated in RPMI 1640 medium supplemented with 0.2 IU bovine insulin and 10% fetal bovine serum. The CaOV-3 human ovarian cancer cells were cultured in Dulbecco's modified Eagle's medium containing 10% fetal bovine serum. The cells were seeded in 96-well plates either at 10,000 cells per well or 30,000 cells per well to examine the antiproliferative and cytotoxic effects of various CC compounds, respectively. The cells were incubated for 24 hours, then the medium was changed followed by the treatments of cultures 2 hours after the medium change. At this point, cell cultures seeded at 10,000 cells per well and 30,000 cells per well were 25-35% and 80-90% confluent, respectively.
# [2] = Viability of MRC-5 normal lung fibroblasts (MTT assay); type: cell-based; settings: human
# Method: as §1
# as §3, with “confluent, respectively. Incubations were continued for 72 hours followed by the MTT assay. The data, shown in TABLE 2, indicate the inhibitory concentrations of CC compounds (IC50) required for 50% decrease in the number of viable cells. These numbers are calculated from the mean of 4 incubations in one experiment (the experiment was repeated once with similar results).” for “confluent, respectively.”
# [3] = tested on: MRC-5 cells; assay: as above; type: cell-based; settings: Homo sapiens, MRC5; 10,000 cells per well (25-35% confluent), 72 hours, MTT; read-out: IC50 values, Antiproliferative, MRC-5
# Method: as §1
# as §3, with “confluent, respectively. Incubations were continued for 72 hours followed by the MTT assay. The data, shown in TABLE 2, indicate the inhibitory concentrations of CC compounds (IC50) required for 50% decrease in the number of viable cells. These numbers are calculated from the mean of 4 incubations in one experiment (the experiment was repeated once with similar results).” for “confluent, respectively.”
# [4] = tested on: CaOV-3 cells; assay: Viability of CaOV-3 ovarian cancer cells (MTT assay); type: cell-based, human; settings: Homo sapiens, Caov-3, 72 hours, MTT
# Method: as §1
# as §2, with “experiment. (The experiment was repeated twice with similar results).” for “experiment.”
# as §3, with “confluent, respectively. Incubations were continued for 72 hours followed by the MTT assay. The data, shown in TABLE 2, indicate the inhibitory concentrations of CC compounds (IC50) required for 50% decrease in the number of viable cells. These numbers are calculated from the mean of 4 incubations in one experiment (the experiment was repeated once with similar results). […]” for “confluent, respectively.”
# [5] = tested on: MCF-7 cells; assay: Viability of MCF-7 breast cancer cells; type: cell-based, human; settings: 2 mM Etn + 100 μM CCDTHT, 72 hours, MTT
# Method: as §1
# About 50% confluent cultures of MCF-7 cells, cultured in 12-well plates in Dulbecco's modified Eagle's medium (DMEM) supplemented with 10% FBS, were either untreated (FIG. 3A), or were treated with 100 μM CCDTHT (CCompound3) for 72 hours (FIG. 3B). […] This experiment was repeated three times with similar results. In some experiments, cells from the CCDTHT-treated cultures were seeded into 96-well plates, and the MTT assay was performed 96 hours later to test for viable cells.
# The NIH 3T3 (normal) mouse fibroblast, A431 human epidermoid adenocarcinoma, and MCF-7 human breast cancer cells were cultured in DMEM medium containing 10% FBS. The MEL-28 human melanoma cells were cultured in MEM medium containing 10% FBS. The HT-29 human colon adenocarcinoma cells were cultured in McCoy's 5a medium containing 10% FBS. The A549 human lung carcinoma cells were maintained in Ham's F12K medium containing 10% FBS. Cells were seeded into 96-well plates and treated at ˜70-90% confluency. Two hours before treatments the medium was changed for fresh 10% serum medium, and then the cells were incubated for 72 hours in the presence of 0-200 μM of CCompound1 (●) or CCompound3 (CCDTHT) (▴), as indicated. The MTT assay was used to determine cell viability after treatments. The values, shown in FIGS. 5A-5F and expressed as percent decrease in viability compared to the untreated control cells, are the mean±std. dev. of 8 incubations in one experiment. Similar results were obtained in another experiment.
# NIH 3T3, AN3CA, HT-29, MEL-28, and MCF-7 cells were cultured as described earlier. Cells were seeded into 96-well plates; when cells were ˜80-90% confluent, the medium was changed for fresh 10% serum-containing medium, followed by incubations for 72 hours in the absence (□) or presence of 100 μM CCDTHT ? , 2 mM ethanolamine (Etn) ? , or 100 μM CCDTHT+2 mM Etn (▪). The MTT assay was used to determine cell viability. […]
# [6] = 10,000 cells per well (25-35% confluent), read-out: IC50 values, Antiproliferative, T47D
# [7] = 30,000 cells per well (80-90% confluent), read-out: IC50 values, Cytotoxic, T47D
# [8] = MRC-5 normal lung fibroblasts, 30,000 cells per well (80-90% confluent), 72 hours, MTT, read-out: IC50 values, Cytotoxic, MRC-5
# [9] = 10,000 cells per well (25-35% confluent), read-out: IC50 values, Antiproliferative, CaOV-3
# [10] = 30,000 cells per well (80-90% confluent), read-out: IC50 values, Cytotoxic, CaOV-3
Structure (SMILES),"pIC50 [1, 6]","pIC50 [1, 7]","IC50 at 72 h [2, 8] [µM]",pIC50 [3],"pIC50 [4, 9]","pIC50 [4, 10]",IC50 at 72 h [2] [µM],"effect of Etn on CCDTHT-induced reduction in cell viability, MCF-7 [5]"
"Cc1ccc2c(c1)/C(=C\CC[N+](C)(C)C)c1ccccc1S2 [CCcompound21, N,N,N-trimethyl-3-(2-methyl-9H-thioxanthen-9-ylidene)-propane-1-aminium iodide]",4.12,4.23,164,3.95,4.49,4.54,–,–
"CC[N+](C)(C)CC/C=C1/c2ccccc2Sc2ccc(C)cc21 [CCcompound22, N,N-Dimethyl-N-ethyl-3-(2-methyl-9H-thioxanthen-9-ylidene)-propane-1-aminium iodide]",4.19,4.19,215,3.85,4.21,4.44,–,–
"CC[N+](C)(CC)CC/C=C1/c2ccccc2Sc2ccc(C)cc21 [CCcompound23, N,N-Diethyl-N-methyl-3-(2-methyl-9H-thioxanthen-9-ylidene)-propane-1-aminium iodide]",4.32,4.42,163,3.86,4.85,4.49,–,–
"C=CC[N+](C)(C)CC/C=C1/c2ccccc2Sc2ccc(C)cc21 [CCcompound24, N,N-Dimethyl-N-allyl-3-(2-methyl-9H-thioxanthen-9-ylidene)-propane-1-aminium bromide]",4.25,4.23,–,3.95,4.16,4.54,207,–
"CC[N+](CC)(CC)CC/C=C1/c2ccccc2Sc2ccc(C)cc21 [CCcompound25, N,N,N-triethyl-3-(2-methyl-9H-thioxanthen-9-ylidene)-propane-1-aminium-iodide]",4.74,4.41,123,3.93,4.33,4.18,–,–
"C=CC[N+](CC)(CC)CC/C=C1/c2ccccc2Sc2ccc(C)cc21.[Br-] [CCcompound26, N,N-diethyl-N-allyl-3-(2-methyl-9H-thioxanthen-9-ylidene)-propane-1-aminium-bromide]",4.96,5.10,–,4.07,4.24,4.23,98,–
"NCCO [Etn, ethanolamine, reference compound]",–,–,–,–,–,–,–,clearly prevented
